The numbers were not newly measured in US10717749B2, “Macrocyclic sulfondiimine compounds” (BAYER PHARMA AKTIENGESELLSCHAFT, priority 2015, dated 2020), which cites them from elsewhere.

For the series the following is noted: in vivo; cited from earlier work.

As for `C[N+]1(C)[C@@H]2C[C@@H](OC(=O)C(O)(c3cccs3)c3cccs3)C[C@H]1[C@@H]1O[C@@H]12` [tiotropium], the “duration of protection against bronchospasms” value is “more than 6 hours”.
